ChEMBL document CHEMBL1201862, “PubChem BioAssay data set” (2004)
Activity calls are given as the source filed them.

Legend:
[1] = A Cell Based Secondary Assay to Explore Cytotoxicity in THP-1 Cells of Compounds that Modulate Mycobacterium tuberculosis in Media Containing Glycerol versus Media without Glycerol (2).; format: functional
[2] = Luminescence Cell-Based Dose Retest to Confirm Inhibitors of Cancer Stem Cells. [Related pubchem assays (depositor defined):AID2717, AID2721]; format: functional; details: Homo sapiens
[3] = microbe, parasite or virus in culture; format: functional; details: Mycobacterium tuberculosis
[4] = biological target: T1, Short transient receptor potential channel 4 (Mus musculus, UniProt Q9QUQ5); assay: block of DAMGO-driven TRPC4 calcium entry – cell-based, HEK293 TRPC4/mu-opioid, Fluo-4 calcium, dose response (AID 434942); format: functional;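 note: potency of inhibitors blocking the TRPC4 calcium response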
T1 sequence (Q9QUQ5 whole entry): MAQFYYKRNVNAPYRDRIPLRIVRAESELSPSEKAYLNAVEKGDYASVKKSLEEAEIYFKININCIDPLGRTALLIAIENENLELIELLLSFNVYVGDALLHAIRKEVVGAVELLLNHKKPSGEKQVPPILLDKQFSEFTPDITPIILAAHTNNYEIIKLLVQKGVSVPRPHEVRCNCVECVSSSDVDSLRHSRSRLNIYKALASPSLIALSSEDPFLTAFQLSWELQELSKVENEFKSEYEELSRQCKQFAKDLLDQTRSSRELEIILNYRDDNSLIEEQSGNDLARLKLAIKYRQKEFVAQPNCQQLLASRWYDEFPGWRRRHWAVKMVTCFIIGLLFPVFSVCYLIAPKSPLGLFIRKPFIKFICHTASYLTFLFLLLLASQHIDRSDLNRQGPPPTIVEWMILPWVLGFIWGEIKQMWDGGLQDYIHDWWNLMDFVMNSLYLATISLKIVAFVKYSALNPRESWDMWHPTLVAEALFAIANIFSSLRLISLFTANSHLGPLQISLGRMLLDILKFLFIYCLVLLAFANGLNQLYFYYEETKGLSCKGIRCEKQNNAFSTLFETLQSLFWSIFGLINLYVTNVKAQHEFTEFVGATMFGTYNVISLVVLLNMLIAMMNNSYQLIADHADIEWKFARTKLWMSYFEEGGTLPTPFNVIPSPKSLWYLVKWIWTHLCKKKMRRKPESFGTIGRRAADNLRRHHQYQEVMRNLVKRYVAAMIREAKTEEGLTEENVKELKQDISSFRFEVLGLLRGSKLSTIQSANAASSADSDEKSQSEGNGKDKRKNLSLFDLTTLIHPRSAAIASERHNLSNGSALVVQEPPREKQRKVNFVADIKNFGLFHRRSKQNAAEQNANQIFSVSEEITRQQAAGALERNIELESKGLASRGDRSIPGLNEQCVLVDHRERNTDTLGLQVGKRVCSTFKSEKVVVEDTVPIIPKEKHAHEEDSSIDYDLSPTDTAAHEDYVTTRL

[5] = A Cell Based Secondary Assay to Explore Cytotoxicity in HepG2 Cells of Compounds that Modulate Mycobacterium tuberculosis in Media Containing Glycerol versus Media without Glycerol (2).; format: functional
[6] = Vero cell cytotoxicity, cytotoxicity control for M. tuberculosis inhibitor project, purified and synthesized samples, set 3 (AID 504684); format: functional
Orexin receptor type 2 [7] = biological target: T2, Orexin receptor type 2 (Homo sapiens, UniProt O43614); assay: Counterscreen assay for antagonists of the orexin 1 receptor (OX1R; HCRTR1): Fluorescence-based cell-based dose response assay for antagonists of the orexin 2 receptor (OX2R; HCRTR2), run by assay provider.; format: functional
T2 sequence (O43614 whole entry): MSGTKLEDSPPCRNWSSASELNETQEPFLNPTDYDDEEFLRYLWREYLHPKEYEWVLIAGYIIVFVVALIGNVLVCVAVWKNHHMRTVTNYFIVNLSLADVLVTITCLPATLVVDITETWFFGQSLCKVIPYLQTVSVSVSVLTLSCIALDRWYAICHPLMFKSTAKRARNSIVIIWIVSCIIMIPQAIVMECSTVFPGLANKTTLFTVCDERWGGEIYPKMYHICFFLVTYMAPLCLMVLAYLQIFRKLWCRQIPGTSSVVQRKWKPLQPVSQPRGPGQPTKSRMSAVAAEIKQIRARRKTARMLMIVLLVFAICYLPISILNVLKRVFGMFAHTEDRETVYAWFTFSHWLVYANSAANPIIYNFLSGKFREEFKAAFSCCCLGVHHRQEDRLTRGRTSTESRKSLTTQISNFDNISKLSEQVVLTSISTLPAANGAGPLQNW

[8] = biological target: T3, Orexin/Hypocretin receptor type 1 (Homo sapiens, UniProt O43613); assay: (§1) Fluorescence-based cell-based high throughput dose response assay for antagonists of the orexin 1 receptor (OX1R; HCRTR1). [Related pubchem assays (depositor defined):AID434989, AID435008, AID463079, AID485270, AID492963, AID492964, AID492965, AID493232, AID504717, AID504718]; format: functional
T3 sequence (O43613 whole entry): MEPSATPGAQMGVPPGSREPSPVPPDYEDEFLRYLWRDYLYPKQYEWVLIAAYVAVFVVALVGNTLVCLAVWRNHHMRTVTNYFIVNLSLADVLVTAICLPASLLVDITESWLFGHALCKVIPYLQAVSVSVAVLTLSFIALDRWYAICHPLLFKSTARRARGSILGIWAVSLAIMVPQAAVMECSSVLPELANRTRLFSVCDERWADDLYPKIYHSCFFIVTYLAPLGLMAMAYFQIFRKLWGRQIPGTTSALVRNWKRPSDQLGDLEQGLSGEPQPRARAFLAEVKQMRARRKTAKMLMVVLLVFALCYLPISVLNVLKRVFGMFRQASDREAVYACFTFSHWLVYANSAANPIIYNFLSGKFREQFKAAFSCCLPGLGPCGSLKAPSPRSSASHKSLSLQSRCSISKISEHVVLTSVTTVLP

CHO-K1 = assay: (§2) Counterscreen for antagonists of the orexin 1 receptor (OX1R; HCRTR1): Homogeneous time resolved fluorescence (HTRF)-based cell-based dose response assay to identify antagonists of the parental CHO-K1 cell line. [Related pubchem assays (depositor defined):AID434989, AID435008, AID463079, AID485270, AID492963, AID492964, AID492965, AID493232, AID504699, AID504701]; format: functional; details: Cricetulus griseus
Orexin receptor type 2 [9] = biological target: T2, Orexin receptor type 2; assay: Counterscreen assay for antagonists of the orexin 1 receptor (OX1R; HCRTR1): Homogeneous Time Resolved Fluorescence (HTRF)-based cell-based dose response assay for antagonists of the orexin 2 receptor (OX2R; HCRTR2), run by assay provider.; format: functional
[10] = biological target: T3, Orexin/Hypocretin receptor type 1; assay: as §1, with “Homogeneous Time Resolved Fluorescence (HTRF)-based” for “Fluorescence-based”; format: functional
[11] = as §2, with “Fluorescence-based” for “Homogeneous time resolved fluorescence (HTRF)-based”, “cell-based high throughput” for “cell-based”, “CHO” for “CHO-K1”; format: functional
[12] = biological target: G-protein coupled receptor 55 (Homo sapiens, UniProt Q9Y2T6); assay: inhibition of LPI-stimulated GPR55 beta-arrestin translocation – imaging, U2OS, beta-arrestin-GFP, LPI agonist, primary screen (AID 2013); format: functional;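 note: antagonist potency measured as reduced agonist-driven arrestin aggregation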
Ephrin type-A receptor 4 = Ephrin type-A receptor 4 (Mus musculus, UniProt Q03137); assay: EphA4 ligand-binding antagonists – biochemical, colorimetric, mouse EphA4, primary screen (AID 689); format: functional
[13] = biological target: Botulinum neurotoxin type A (Clostridium botulinum (strain Hall / ATCC 3502 / NCTC 13319 / Type A), UniProt P0DPI1); assay: High-throughput multiplex microsphere dose response for inhibitors of toxin protease, specifically Botulinum neurotoxin light chain A protease, compounds from Cherry Pick 01.; format: functional; details: read-out: EC50_MICROM
[14] = biological target: T4, High affinity choline transporter 1 (Homo sapiens, UniProt Q9GZV3); assay: human choline transporter potentiators, potency – cell-based, 10-point CRC, membrane potential dye, dose response (AID 602376); format: functional
T4 sequence (Q9GZV3 whole entry): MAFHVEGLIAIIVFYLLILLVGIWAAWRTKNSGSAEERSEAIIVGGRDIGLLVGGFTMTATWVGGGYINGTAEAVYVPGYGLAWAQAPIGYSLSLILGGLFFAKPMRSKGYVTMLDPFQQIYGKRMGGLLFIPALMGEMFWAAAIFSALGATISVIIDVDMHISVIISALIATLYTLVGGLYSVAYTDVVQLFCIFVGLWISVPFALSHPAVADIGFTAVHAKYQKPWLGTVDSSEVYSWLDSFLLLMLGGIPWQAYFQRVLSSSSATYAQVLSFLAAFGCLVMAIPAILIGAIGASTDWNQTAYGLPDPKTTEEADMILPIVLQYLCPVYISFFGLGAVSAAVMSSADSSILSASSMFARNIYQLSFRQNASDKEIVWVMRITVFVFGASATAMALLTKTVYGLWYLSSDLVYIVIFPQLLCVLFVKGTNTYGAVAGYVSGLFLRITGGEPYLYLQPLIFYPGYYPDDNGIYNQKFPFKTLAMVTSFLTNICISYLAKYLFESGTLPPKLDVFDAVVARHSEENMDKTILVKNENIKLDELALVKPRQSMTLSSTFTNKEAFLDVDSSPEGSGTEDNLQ

[15] = biological target: Voltage-dependent T-type calcium channel subunit alpha-1H (Homo sapiens, UniProt O95180); format: functional;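 note: channel activity triggered by adding a high calcium stimulation buffer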
[16] = biological target: Cell division cycle 7-related protein kinase (Homo sapiens, UniProt O00311); format: functional;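 note: value obtained from a kinome-wide kinase panel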
Chain of Cell division cycle 7-related protein kinase (O00311 whole entry): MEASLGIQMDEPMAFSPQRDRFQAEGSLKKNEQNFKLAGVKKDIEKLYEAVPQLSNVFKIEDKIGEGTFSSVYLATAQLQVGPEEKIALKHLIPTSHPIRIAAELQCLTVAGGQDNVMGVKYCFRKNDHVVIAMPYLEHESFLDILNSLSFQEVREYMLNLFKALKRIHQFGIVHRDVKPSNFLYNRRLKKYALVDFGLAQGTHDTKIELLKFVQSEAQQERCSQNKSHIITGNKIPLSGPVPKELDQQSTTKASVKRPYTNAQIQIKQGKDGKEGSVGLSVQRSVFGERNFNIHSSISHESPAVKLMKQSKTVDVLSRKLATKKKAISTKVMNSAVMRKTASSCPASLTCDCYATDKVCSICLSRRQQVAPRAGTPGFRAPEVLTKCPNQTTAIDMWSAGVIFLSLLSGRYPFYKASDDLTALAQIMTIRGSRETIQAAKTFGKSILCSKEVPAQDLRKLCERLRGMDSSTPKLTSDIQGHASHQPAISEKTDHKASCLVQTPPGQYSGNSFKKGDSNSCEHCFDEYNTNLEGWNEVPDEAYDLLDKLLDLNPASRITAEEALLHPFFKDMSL

[17] = biological target: ALK tyrosine kinase receptor (Homo sapiens, UniProt Q9UM73); format: functional;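 note: ALK tested as one member of a kinase panel screen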
Chain of ALK tyrosine kinase receptor (Q9UM73 whole entry): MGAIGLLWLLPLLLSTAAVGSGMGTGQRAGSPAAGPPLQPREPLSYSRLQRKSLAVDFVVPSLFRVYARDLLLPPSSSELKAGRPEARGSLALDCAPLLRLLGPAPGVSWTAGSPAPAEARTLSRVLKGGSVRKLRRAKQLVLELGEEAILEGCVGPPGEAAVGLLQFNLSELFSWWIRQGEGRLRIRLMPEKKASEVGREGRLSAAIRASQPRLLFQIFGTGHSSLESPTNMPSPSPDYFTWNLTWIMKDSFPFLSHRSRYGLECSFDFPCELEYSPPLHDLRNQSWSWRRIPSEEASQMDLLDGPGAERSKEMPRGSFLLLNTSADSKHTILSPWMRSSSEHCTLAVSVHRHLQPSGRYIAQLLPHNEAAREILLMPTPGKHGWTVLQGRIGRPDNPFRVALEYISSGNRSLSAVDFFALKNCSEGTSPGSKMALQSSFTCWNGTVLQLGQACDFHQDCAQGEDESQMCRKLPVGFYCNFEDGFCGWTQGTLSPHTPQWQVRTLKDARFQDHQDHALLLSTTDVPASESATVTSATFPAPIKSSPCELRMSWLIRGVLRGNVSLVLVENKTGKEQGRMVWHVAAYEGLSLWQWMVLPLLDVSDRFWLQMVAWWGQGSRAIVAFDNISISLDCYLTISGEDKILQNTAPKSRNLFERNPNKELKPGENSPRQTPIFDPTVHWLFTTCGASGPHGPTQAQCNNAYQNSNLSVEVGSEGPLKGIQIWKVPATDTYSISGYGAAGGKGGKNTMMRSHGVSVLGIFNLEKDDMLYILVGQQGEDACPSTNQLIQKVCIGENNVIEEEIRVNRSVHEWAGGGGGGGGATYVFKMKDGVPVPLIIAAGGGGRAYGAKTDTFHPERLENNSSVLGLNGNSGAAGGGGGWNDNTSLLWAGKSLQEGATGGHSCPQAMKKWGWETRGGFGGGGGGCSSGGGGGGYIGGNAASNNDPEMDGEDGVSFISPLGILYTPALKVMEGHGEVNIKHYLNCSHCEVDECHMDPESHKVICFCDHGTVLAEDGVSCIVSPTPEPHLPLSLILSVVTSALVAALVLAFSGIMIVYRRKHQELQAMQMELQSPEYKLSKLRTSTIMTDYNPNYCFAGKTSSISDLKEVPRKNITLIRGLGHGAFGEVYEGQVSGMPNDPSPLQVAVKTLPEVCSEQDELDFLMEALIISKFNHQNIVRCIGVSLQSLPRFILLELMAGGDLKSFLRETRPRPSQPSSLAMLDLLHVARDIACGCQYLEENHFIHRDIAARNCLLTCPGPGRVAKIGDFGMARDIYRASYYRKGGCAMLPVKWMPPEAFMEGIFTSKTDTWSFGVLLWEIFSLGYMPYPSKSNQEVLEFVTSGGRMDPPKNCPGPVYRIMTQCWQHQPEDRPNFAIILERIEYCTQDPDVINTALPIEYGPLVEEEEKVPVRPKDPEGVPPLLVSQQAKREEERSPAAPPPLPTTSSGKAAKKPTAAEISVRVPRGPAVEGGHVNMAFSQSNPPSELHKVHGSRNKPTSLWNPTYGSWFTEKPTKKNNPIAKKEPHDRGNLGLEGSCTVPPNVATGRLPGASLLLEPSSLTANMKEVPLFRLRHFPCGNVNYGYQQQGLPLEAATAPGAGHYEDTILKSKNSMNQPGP

[18] = biological target: Sphingosine 1-phosphate receptor 1 (Homo sapiens, UniProt P21453); assay: Late-stage fluorescence-based dose-response cell-based counterscreen assay to identify agonists of the Sphingosine 1-Phosphate Receptor 4 (S1P4): Sphingosine 1-Phosphate Receptor 1 (S1P1) agonist assay Set 2.; format: functional
[19] = biological target: Sphingosine 1-phosphate receptor 3 (Homo sapiens, UniProt Q99500); assay: Late-stage fluorescence-based dose-response cell-based counterscreen assay to identify agonists of the Sphingosine 1-Phosphate Receptor 4 (S1P4): Sphingosine 1-Phosphate Receptor 3 (S1P3) agonist assay Set 2.; format: functional
[20] = biological target: Sphingosine 1-phosphate receptor 2 (Homo sapiens, UniProt O95136); assay: activation of human S1P2 receptor – cell-based, fluorescence, set 2, counter-screen for S1P4 agonist project, late-stage follow-up (AID 504873); format: functional
[21] = biological target: Sphingosine 1-phosphate receptor 5 (Homo sapiens, UniProt Q9H228); assay: activation of human S1P5 receptor – cell-based, fluorescence, set 2, counter-screen for S1P4 agonist project, late-stage follow-up (AID 504867); format: functional
[22] = P. falciparum Dd2 growth inhibitors, dose response, SYBR Green, cherry-picked samples (AID 1159567); format: functional, cell-based
[23] = biological target: Protein disulfide-isomerase (Homo sapiens, UniProt P07237); assay: inhibition of PDI-driven insulin aggregation – biochemical, turbidity, absorbance, cherry-picked samples, dose response (AID 602350); format: functional
[24] = biological target: Dual specificity protein kinase CLK4 (Homo sapiens, UniProt Q9HAZ1); format: functional
[25] = biological target: Serine/threonine-protein kinase Chk1 (Homo sapiens, UniProt O14757); format: functional;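 note: measured as one member of a kinome-wide kinase profiling panel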
Chain of Serine/threonine-protein kinase Chk1 (O14757 whole entry): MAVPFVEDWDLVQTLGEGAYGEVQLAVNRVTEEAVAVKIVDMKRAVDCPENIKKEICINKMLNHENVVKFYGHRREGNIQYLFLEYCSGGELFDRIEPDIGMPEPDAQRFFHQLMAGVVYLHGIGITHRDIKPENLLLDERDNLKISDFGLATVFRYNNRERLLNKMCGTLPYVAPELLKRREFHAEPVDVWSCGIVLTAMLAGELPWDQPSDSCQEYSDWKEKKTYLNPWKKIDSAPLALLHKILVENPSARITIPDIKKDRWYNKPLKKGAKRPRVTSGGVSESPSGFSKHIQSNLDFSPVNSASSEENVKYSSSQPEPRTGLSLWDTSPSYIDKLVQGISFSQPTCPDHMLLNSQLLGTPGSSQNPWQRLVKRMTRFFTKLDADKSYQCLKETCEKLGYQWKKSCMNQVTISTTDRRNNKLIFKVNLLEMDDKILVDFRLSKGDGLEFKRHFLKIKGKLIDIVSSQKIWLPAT

[26] = biological target: Mitogen-activated protein kinase 8 (Homo sapiens, UniProt P45983); format: functional;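 note: value comes from one member of a kinome-wide kinase profiling panel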
Chain of Mitogen-activated protein kinase 8 (P45983 whole entry): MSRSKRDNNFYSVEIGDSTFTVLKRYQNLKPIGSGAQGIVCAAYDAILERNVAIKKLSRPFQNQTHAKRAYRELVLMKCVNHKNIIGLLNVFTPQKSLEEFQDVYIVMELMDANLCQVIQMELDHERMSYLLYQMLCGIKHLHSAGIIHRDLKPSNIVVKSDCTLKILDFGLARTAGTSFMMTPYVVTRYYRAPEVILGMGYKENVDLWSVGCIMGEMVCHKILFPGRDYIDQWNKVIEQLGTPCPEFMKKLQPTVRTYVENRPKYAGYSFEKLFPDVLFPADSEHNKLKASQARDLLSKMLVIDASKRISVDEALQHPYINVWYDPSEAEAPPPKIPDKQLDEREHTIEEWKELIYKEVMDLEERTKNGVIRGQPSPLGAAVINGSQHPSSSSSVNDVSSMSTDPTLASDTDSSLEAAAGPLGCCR

[27] = biological target: Serine/threonine-protein kinase pim-1 (Homo sapiens, UniProt P11309); format: functional
Chain of Serine/threonine-protein kinase pim-1 (P11309 whole entry): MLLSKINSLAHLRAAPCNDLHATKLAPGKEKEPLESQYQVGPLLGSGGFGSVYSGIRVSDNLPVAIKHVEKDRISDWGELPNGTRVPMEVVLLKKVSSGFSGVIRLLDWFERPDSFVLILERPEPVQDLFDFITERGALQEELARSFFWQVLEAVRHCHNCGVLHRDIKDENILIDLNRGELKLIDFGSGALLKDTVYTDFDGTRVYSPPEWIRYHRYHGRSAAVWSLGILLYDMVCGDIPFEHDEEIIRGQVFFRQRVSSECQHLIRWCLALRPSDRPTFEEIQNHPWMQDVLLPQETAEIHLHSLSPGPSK

[28] = biological target: cAMP-dependent protein kinase catalytic subunit PRKX (Homo sapiens, UniProt P51817); format: functional
Chain of cAMP-dependent protein kinase catalytic subunit PRKX (P51817 whole entry): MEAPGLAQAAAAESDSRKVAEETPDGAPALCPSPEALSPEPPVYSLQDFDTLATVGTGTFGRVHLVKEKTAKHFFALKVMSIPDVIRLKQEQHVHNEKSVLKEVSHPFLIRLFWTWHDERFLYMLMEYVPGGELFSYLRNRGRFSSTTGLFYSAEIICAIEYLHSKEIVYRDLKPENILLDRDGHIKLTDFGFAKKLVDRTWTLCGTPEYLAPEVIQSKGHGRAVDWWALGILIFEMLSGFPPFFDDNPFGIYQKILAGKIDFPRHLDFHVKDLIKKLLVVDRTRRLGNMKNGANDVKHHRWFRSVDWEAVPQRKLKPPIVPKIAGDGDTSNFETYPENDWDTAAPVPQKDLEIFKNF

[29] = biological target: Inhibitor of nuclear factor kappa-B kinase subunit epsilon (Homo sapiens, UniProt Q14164); assay: Navigating the Kinome. Panel member name: IKBKE; format: functional
Wee1-like protein kinase = Wee1-like protein kinase (Homo sapiens, UniProt P30291); assay: Navigating the Kinome. Panel member name: WEE1; format: functional
Chain of Wee1-like protein kinase (P30291 whole entry): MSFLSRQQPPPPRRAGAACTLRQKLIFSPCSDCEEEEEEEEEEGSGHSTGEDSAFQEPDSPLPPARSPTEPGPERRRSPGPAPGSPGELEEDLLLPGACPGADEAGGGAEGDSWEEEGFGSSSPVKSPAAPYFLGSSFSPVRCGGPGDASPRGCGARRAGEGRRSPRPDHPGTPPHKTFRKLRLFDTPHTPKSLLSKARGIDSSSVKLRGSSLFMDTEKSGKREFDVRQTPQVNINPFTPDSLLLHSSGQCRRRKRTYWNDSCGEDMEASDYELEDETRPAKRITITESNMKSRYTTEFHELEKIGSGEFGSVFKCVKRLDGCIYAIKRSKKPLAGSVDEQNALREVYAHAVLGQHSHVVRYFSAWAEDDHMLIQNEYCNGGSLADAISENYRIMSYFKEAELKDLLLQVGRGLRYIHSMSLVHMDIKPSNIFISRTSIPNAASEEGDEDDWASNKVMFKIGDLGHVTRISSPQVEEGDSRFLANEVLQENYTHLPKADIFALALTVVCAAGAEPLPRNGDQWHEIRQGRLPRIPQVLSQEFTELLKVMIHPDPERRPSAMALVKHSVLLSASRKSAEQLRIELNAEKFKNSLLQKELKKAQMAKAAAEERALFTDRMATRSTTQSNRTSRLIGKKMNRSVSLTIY

CNc1nc(SCc2ccccc2Cl)nc2c1CCCC2
CC50 [1]: 49.2 µM (active) | AC50 [2]: 8.66 µM (active) | CC50 [3]: 9.68 µM (active) | EC50 [4]: 4.73 µM (active) | CC50 [5]: 36.2 µM (active) | CC50 [6]: 25.6 µM (active)

O=[N+]([O-])c1c(O)nc2ccc(Cl)cc2c1-c1ccccc1
IC50 (Orexin receptor type 2 [7]): > 88.8 µM (inactive) | IC50 [8]: > 49.8 µM (inactive) | IC50 (CHO-K1): > 66.2 µM (inactive) | IC50 (Orexin receptor type 2 [9]): 1.5 µM (active) | IC50 [10]: 0.915 µM (active) | IC50 [11]: > 49.8 µM (inactive)

CCSc1nnc(-c2sc3nnc(-c4ccccc4)c(-c4ccccc4)c3c2N)o1
AC50 [2]: 0.286 µM (active) | IC50 [12]: 2.44 µM (active) | IC50 (Ephrin type-A receptor 4): 4.62 µM (active) | EC50 [13]: 6.9 µM (active)

CCN(CC)CCn1c(NCc2nc3ccccc3n2Cc2ccccc2)nc2ccccc21
EC50 [14]: 11.4 µM (active) | EC50 [15]: 4.94 µM (active)

O=c1cc(-c2ccccc2)nc(NC2CCCCC2)[nH]1
Ki [16]: 0.251 µM (active) | Ki [17]: > 5.01 µM (inactive)

CC/N=C1/S/C(=C/c2cc(C)n(-c3ccccn3)c2C)C(=O)N1CC
EC50 [18]: 0.103 µM (active) | EC50 [19]: > 25 µM (inactive) | EC50 [20]: > 25 µM (inactive) | EC50 [21]: 0.72 µM (active)

C[C@H](CO)N1C[C@H](C)[C@@H](CN(C)S(=O)(=O)c2ccccc2)Oc2ccc(NC(=O)Cc3cn(C)c4ccccc34)cc2C1=O
AC50 [22]: 4.29 µM (active) | AC50 [23]: 0.125 µM (active)

COc1ccc(C(=O)Nc2ccccc2C(=O)O)cc1OC
Ki [24]: 1.58 µM (active) | Ki [25]: 1.58 µM (active) | Ki [26]: 2.51 µM (active) | Ki [27]: 5.01 µM (active)

O=C(O)C1CN(Cc2ccc(OCc3cccc(C(F)(F)F)c3)cc2F)C1
Ki [28]: 2.51 µM (active) | Ki [29]: 3.16 µM (active)

CCN1CCN(c2ccc(Nc3ncc(Cl)c(Nc4ccc(O)c(NC(C)=O)c4)n3)cc2)CC1
Ki (Wee1-like protein kinase): 0.00794 µM (active) | Ki [17]: 0.501 µM (active)
